Measurements published in US20250368687A1, “SHORT SYNTHETIC PEPTIDES AND USES THEREOF IN THE TREATMENT OF ENTEROVIRUS INFECTION” (CITY UNIVERSITY OF HONG KONG, priority 2024, published 2025).

Test system: Hsp27 phosphorylation on Ser 15, 78, 82
Assay: Western blot of Hsp27 phosphorylation in EV-A71-infected RD cells
Assay type: cell-based
Conditions: for inhibition of Hsp27 Ser78 phosphorylation: peptide pre-treatment 2 hours
Method: RD cells were treated with SB203580 at indicated concentration for 2 hours, then infected with EV-A71 at the MOI of 10 for 6 hours. Cell lysates were collected for western blot assay. Hsp27 phosphorylation on Ser 15, 78, 82 were detected by specific antibodies. GAPDH were detected as internal control.
FIGS. 10A-10K. […] (FIG. 10A) RD cells were pre-treated with peptides S78 or for 2 hours and infected with EV-A71 at the MOI of 10 for 6 hours. Cell lysates were collected for western blot assay. Hsp27 phosphorylation on Ser 15, 78, 82 were detected by specific antibodies. β-Actin were detected as internal control. (FIG. 10B) Densitometric analysis of FIG. 9A. (FIG. 10C) HEK 293T cells were pre-treated with peptides S78 or S78A at the concentration of 25 μM for 2 hours and then co-transfected with Hsp27-WT plasmid (800 ng), pIRES reporter plasmid (200 ng) and 2A^pro-expressing plasmid or 2AC110A-expressing plasmid (200 ng) for 24 h, then the luciferase activity was measured. (FIG. 10D-10E) RD cells were treated with peptides S78 or S78A and then infected with EV-A71. EV-A71 VP1 were detected. (FIG. 10F) RD cells were treated with peptides and then infected with EV-A71 at the MOI of 1 for 12 hours. The EV-A71-induced CPE was captured. (FIG. 10G-10H) Intracellular viral RNA was extracted and quantified by qPCR. (FIG. 10I) Densitometric analysis FIG. 9D-E. (FIG. 10J) RD cells were treated with peptides S78 or and then infected with EV-A71 at the MOI of 1 for 12 hours. Extracellular viral RNA was extracted and quantified by qPCR. (FIG. 10K) Viral titration was calculated by TCID50. The Statistical analyses were carried out using Student's t-test. *: p<0.05, **: p<0.01, ***: p<0.001. Data are expressed as mean ±SD.
After cell lysis in Nonidet-P40 (NP-40) buffer, the cell lysates were centrifuged, and the concentration was determined by Bradford assay (Bio-Rad). 20 μg of protein was used for 12% SDS-PAGE and transferred onto polyvinylidene fluoride membrane (PVDF) (GE, MA, USA). Following 5% bovine serum albumin (BSA) blocking for 1 hrs, the membrane was incubated with antibodies (1:1000) against Hsp27 (sc-13132), pHsp27-Ser15 (ab76313), pHsp27-Ser78 (ADI-SPA-523), pHsp27-Ser82 (ab155987), VP1 (GTX132339), β-Actin (sc-47778), hnRNP A1 (sc-32301), or GAPDH (sc-32233) overnight in 4° C. After secondary antibodies (HRP-conjugated Affinipure Goat Anti-Mouse IgG(H+L), SA00001-1, and HRP-conjugated Affinipure Goat Anti-Rabbit IgG(H+L), SA00001-2) incubation for 1 hrs, the protein was visualized with a chemiluminescence reagent (PerkinElmer, MA, USA) on Bio-Rad Chemidoc Imaging System. The protein bands were quantified by densitometry with ImageJ if necessary.
In this example, the effect of EV-A71 infection on Hsp27 phosphorylation was investigated. […] Then, the phosphorylation status of Hsp27 upon virus infection under the treatment with a p38 inhibitor was examined, as the phosphorylation of Hsp27 could be resulted from p38 signaling activation. To this purpose, the cells were first treated with p38 kinase inhibitor −SB203580 at different concentrations (0, 0.25, 0.5, 1, 2, 4, and 8 μM) and the phosphorylation level of Hsp27 upon EV-A71 infection was examined by western blot assay.

[1] = EV-A71 MOI 10 for 6 hours, RD cells
[2] = SB203580 0-8 μM for 2 hours, EV-A71 MOI 10 for 6 hours, RD cells

Row | Compound | inhibition of Hsp27 Ser78 phosphorylation [1] | reduction of phosphorylation level at Ser78 (densitometry) (8 μM, EV-A71-infected RD cells) | phosphorylation level of Hsp27 at Ser15 [2] | phosphorylation level of Hsp27 at Ser82 [2] | phosphorylation of Hsp27 at Ser78 [2]
1 | Ac-RKKRRQRRRAYSRALSRQLSS-NH2 [S78] | dramatically inhibited | – | – | – | –
2 | Ac-RKKRRQRRRAYSRALARQLSS-NH2 [S78A] | less inhibition | – | – | – | –
3 | C[S+]([O-])c1ccc(-c2nc(-c3ccncc3)c(-c3ccc(F)cc3)[nH]2)cc1 (stereo not drawn) [SB203580, reference compound] | – | over 85% | slightly decreased | slightly decreased | markedly suppressed in a dose-dependent manner
